In ChEMBL document CHEMBL3351373, “Five-membered heteroaromatic ring fused-pyrimidine derivatives: design, synthesis, and hedgehog signaling pathway inhibition study” (Bioorg Med Chem Lett, 2014) one finds IC50 data, which are given here for 23 compounds.

The term IC50 denotes the midpoint of a concentration-inhibition curve. Low readings indicate greater potency in that assay, high ones weaker potency in that assay.

A short description of the assay: Inhibition of hedgehog receptor signaling pathway in mouse NIH3T3 cells transfected with Gli-reporter gene by luciferase reporter gene assay. Type of assay: cell-based. In general terms: Reporter assays use an easily measured gene product as a stand-in for the process of interest.
As for `Cc1cccc(C)c1NC(=O)c1ccc(Nc2nc(-c3ccc(OC(F)(F)F)cc3)c3occc3n2)cc1`, the IC50 stood at 1.78 nM.

In the case of `Cc1cccc(C)c1NC(=O)c1ccc(Nc2nc(-c3ccc(OC(F)(F)F)cc3)c3c(ccn3C)n2)cc1`, half-maximal inhibition (IC50) was put at 1.17 nM.

With `CS(=O)(=O)c1ccc(C(=O)Nc2ccc(Cl)c(-c3ccccn3)c2)c(Cl)c1` [VISMODEGIB], half-maximal inhibition (IC50) was put at 7.17 nM.

On to `Cc1ccc(CN2CCOCC2)cc1NC(=O)c1ccc(Nc2nc(-c3ccc(OC(F)(F)F)cc3)c3ncn(C)c3n2)cc1`, for which the IC50 is 0.35 nM.

In turn, `FC(F)(F)Oc1ccc(-c2nc(Nc3ccc4[nH]ncc4c3)nc3[nH]cnc23)cc1` showed an IC50 of 399 nM.

`Cc1ccc(CN2CCOCC2)cc1NC(=O)c1ccc(Nc2nc(-c3ccc(OC(F)(F)F)cc3)c3nc[nH]c3n2)cc1` gave an IC50 of 0.69 nM.

In the case of `Cc1cccc(C)c1NC(=O)c1ccc(Nc2nc(-c3ccc(OC(F)(F)F)cc3)c3sccc3n2)cc1`, the IC50 is 3.61 nM.

For `Cc1ccc(OCCN2CCOCC2)cc1NC(=O)c1ccc(Nc2nc(-c3ccc(OC(F)(F)F)cc3)c3nc[nH]c3n2)cc1`, 2.98 nM corresponded to half-maximal inhibition (IC50).

`Cc1ccc(CN2CCN(C)CC2)cc1NC(=O)c1ccc(Nc2nc(-c3ccc(OC(F)(F)F)cc3)c3[nH]ccc3n2)cc1` came in with an IC50 of 1.39 nM.

As to `Cc1ccc(CN2CCOCC2)cc1NC(=O)c1ccc(Nc2nc(-c3ccc(OC(F)(F)F)cc3)c3occc3n2)cc1`, the IC50 worked out at 1.13 nM.

`Cc1ccc(CN2CCN(C)CC2)cc1NC(=O)c1ccc(Nc2nc(-c3ccc(OC(F)(F)F)cc3)c3ccsc3n2)cc1` had an IC50 of 3.36 nM.

As for `O=C1Cc2cc(Nc3nc(-c4ccc(OC(F)(F)F)cc4)c4nc[nH]c4n3)ccc2N1`, the IC50 was more than 1000 nM.

`Cc1ccc(CN2CCN(C)CC2)cc1NC(=O)c1ccc(Nc2nc(-c3ccc(OC(F)(F)F)cc3)c3c(ccn3C)n2)cc1` gave an IC50 of 5.1 nM.

Turning to `Cc1cccc(C)c1NC(=O)c1ccc(Nc2nc(-c3ccc(OC(F)(F)F)cc3)c3ncn(C)c3n2)cc1`, the IC50 is 116 nM.

The compound `Cc1cccc(C)c1NC(=O)c1ccc(Nc2nc(-c3ccc(OC(F)(F)F)cc3)c3[nH]ccc3n2)cc1` showed an IC50 of 12.8 nM.

Compound `Cc1cccc(C)c1NC(=O)c1ccc(Nc2nc(-c3ccc(OC(F)(F)F)cc3)c3ccn(C)c3n2)cc1` registered an IC50 of 2.58 nM.

Compound `Cc1ccc(CN2CCN(C)CC2)cc1NC(=O)c1ccc(Nc2nc(-c3ccc(OC(F)(F)F)cc3)c3sccc3n2)cc1` had an IC50 of 9.39 nM.

`Cc1ccc(CN2CCN(C)CC2)cc1NC(=O)c1ccc(Nc2nc(-c3ccc(OC(F)(F)F)cc3)c3nc[nH]c3n2)cc1` gave an IC50 of 0.9 nM.

`Cc1cccc(C)c1NC(=O)c1ccc(Nc2nc(-c3ccc(OC(F)(F)F)cc3)c3cc[nH]c3n2)cc1` displayed an IC50 of 6.85 nM.

The compound `Cc1cccc(C)c1NC(=O)c1ccc(Nc2nc(-c3ccc(OC(F)(F)F)cc3)c3ccsc3n2)cc1` registered an IC50 of 0.6 nM.

`Cc1ccc(CN2CCOCC2)cc1NC(=O)c1ccc(Nc2nc(-c3ccc(OC(F)(F)F)cc3)c3ccsc3n2)cc1`: the IC50 turned out to be 1.75 nM.

Compound `Cc1cccc(C)c1NC(=O)c1ccc(Nc2nc(-c3ccc(OC(F)(F)F)cc3)c3nc[nH]c3n2)cc1` gave an IC50 of 512 nM.

`Cc1ccc(CN2CCOCC2)cc1NC(=O)c1ccc(Nc2nc(-c3ccc(OC(F)(F)F)cc3)c3cc[nH]c3n2)cc1` had an IC50 of 6.04 nM.
